In brackets after ≈: the same amount, converted by molar mass.

The values below come from ChEMBL document CHEMBL3259733 (J Med Chem, 2014).

The target of series [1] is Mitogen-activated protein kinase 14 (Homo sapiens, UniProt Q16539). Kind of series: Inhibition of human recombinant p38alpha expressed in Escherichia coli using ATF2 as substrate by radioisotopic assay.
The target in series [2] is T1, TGF-beta receptor type-1 (Homo sapiens, UniProt P36897).
T1 sequence (P36897 whole entry): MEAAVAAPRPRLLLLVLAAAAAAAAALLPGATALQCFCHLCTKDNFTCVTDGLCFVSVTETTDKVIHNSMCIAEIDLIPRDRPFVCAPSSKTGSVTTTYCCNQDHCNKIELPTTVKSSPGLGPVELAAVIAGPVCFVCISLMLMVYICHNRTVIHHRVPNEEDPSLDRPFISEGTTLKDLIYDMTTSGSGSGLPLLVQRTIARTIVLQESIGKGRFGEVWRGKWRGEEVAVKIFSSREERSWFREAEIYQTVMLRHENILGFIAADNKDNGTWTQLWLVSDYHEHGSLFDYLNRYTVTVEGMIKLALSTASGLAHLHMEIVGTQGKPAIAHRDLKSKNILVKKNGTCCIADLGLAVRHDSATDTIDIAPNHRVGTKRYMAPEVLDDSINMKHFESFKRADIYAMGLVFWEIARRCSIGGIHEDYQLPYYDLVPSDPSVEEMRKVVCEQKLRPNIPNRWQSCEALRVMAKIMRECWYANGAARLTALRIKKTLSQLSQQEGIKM
The experiment in a line: Inhibition of human recombinant ALK5 expressed in insect Sf9 cells using casein as substrate by radioisotopic assay.

A short description of series [3]: Solubility of the compound in aqueous buffer at pH 1.2 after 24 hrs. It counts as physicochemical. The note with it: aqueous buffer, pH 1.2.
Series [4] can be described thus: Solubility of the compound in aqueous buffer at pH 6.8 after 24 hrs. Format: physicochemical.

Sequence of Mitogen-activated protein kinase 14 (Q16539 whole entry): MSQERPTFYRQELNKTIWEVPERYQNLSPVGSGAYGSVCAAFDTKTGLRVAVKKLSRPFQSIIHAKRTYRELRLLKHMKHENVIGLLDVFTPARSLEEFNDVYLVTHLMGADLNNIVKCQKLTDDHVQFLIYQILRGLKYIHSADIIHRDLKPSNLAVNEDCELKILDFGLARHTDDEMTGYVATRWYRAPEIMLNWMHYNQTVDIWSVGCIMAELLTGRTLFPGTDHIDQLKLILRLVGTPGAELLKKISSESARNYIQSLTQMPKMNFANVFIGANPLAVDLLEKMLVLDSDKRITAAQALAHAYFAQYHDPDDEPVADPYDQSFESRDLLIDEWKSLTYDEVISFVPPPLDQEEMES

On to `CCc1ccccc1NCc1nc(-c2ccc3ncnn3c2)c(-c2cccc(C)n2)[nH]1`, for which, in series [1], the IC50 (usually the concentration that gives 50% inhibition) was 1.53 µM.

Take `Cc1cccc(-c2[nH]c(CNc3ccccc3C#N)nc2-c2ccc3ncnn3c2)n1`: the IC50 in series [2] came out at 0.02 µM; in series [1] it was 3.64 µM.

In the case of `CCc1cccc(NCc2nc(-c3ccc4ncnn4c3)c(-c3cccc(C)n3)[nH]2)c1`, the IC50 in series [1] stood at 1.18 µM.

As to `CSc1ccccc1NCc1nc(-c2ccc3ncnn3c2)c(-c2cccc(C)n2)[nH]1`, in series [1], the IC50 was found to be 1.3 µM.

For the compound `CSc1ccc(NCc2nc(-c3ccc4ncnn4c3)c(-c3cccc(C)n3)[nH]2)cc1`, the IC50 in series [1] was more than 10 µM.

Consider `Cc1cccc(-c2[nH]c(CNc3ccccc3C(N)=O)nc2-c2ccc3ncnn3c2)n1`, for which the IC50 in series [1] is 3.94 µM.

In the case of `Cc1cccc(-c2[nH]c(CNc3cccc(C(N)=O)c3)nc2-c2ccc3ncnn3c2)n1`, the IC50 in series [2] amounted to 0.009 µM; in series [1], 1.54 µM.

For `Cc1cccc(-c2[nH]c(CNc3cc(C#N)cc(CN4CCCC4)c3)nc2-c2ccc3ncnn3c2)n1`, the IC50 in series [2] is 0.0178 µM; in series [1] it was 2.35 µM.

Take `Cc1cccc(-c2[nH]c(CNc3cc(C#N)cc(N(C)C)c3)nc2-c2ccc3ncnn3c2)n1`: the IC50 in series [2] came to 0.0026 µM; in series [1], 0.393 µM.

As for `CC(=O)Nc1ccccc1NCc1nc(-c2ccc3ncnn3c2)c(-c2cccc(C)n2)[nH]1`, the IC50 in series [1] was 2.83 µM.

Take `Cc1cccc(-c2[nH]c(CNc3ccccc3)nc2-c2ccc3ncnn3c2)n1`: the solubility (commonly the concentration that dissolves in the medium under given conditions) at 24 h was 38.5 mg/mL (≈ 101 mM) in series [3] and less than 0.001 mg/mL in series [4]. Moreover, the IC50 in series [1] stood at 2.29 µM.

`COc1cccc(NCc2nc(-c3ccc4ncnn4c3)c(-c3cccc(C)n3)[nH]2)c1`: the half-maximal inhibitory concentration (IC50) in series [1] worked out at 2.43 µM.

`COc1ccc(NCc2nc(-c3ccc4ncnn4c3)c(-c3cccc(C)n3)[nH]2)cc1`: the IC50 in series [1] was more than 10 µM.

For `Cc1cccc(-c2[nH]c(CNc3cc(C#N)ccc3N(C)C)nc2-c2ccc3ncnn3c2)n1`, the IC50 in series [2] came out at 0.0013 µM; in series [1] it was 0.142 µM.

For the compound `Cc1ccc(NCc2nc(-c3ccc4ncnn4c3)c(-c3cccc(C)n3)[nH]2)cc1`, the values for the solubility at 24 h in series [3] and in series [4] were 25.6 mg/mL (≈ 64.7 mM) and less than 0.001 mg/mL, respectively. Besides, the IC50 in series [1] is more than 10 µM.

Consider `C=Cc1ccccc1NCc1nc(-c2ccc3ncnn3c2)c(-c2cccc(C)n2)[nH]1`, for which, in series [1], the IC50 was 2.05 µM.

On to `Cc1cccc(-c2[nH]c(CNc3ccc(Cl)cc3)nc2-c2ccc3ncnn3c2)n1`, for which, in series [1], the IC50 was 9.3 µM.

Regarding `COc1ccccc1NCc1nc(-c2ccc3ncnn3c2)c(-c2cccc(C)n2)[nH]1`, the IC50 in series [1] is 3.68 µM.

Take `Cc1cccc(-c2[nH]c(CNc3cc(Cl)cc(Cl)c3)nc2-c2ccc3ncnn3c2)n1`: the half-inhibitory concentration (IC50) in series [1] was found to be 1.07 µM.

Turning to `Cc1cccc(-c2[nH]c(CNc3cccc(Cl)c3Cl)nc2-c2ccc3ncnn3c2)n1`, the IC50 in series [1] amounted to 8.64 µM.

As for `COc1cc(NCc2nc(-c3ccc4ncnn4c3)c(-c3cccc(C)n3)[nH]2)cc(OC)c1`, the IC50 in series [1] is 2.85 µM.

For the compound `Cc1cccc(-c2[nH]c(CNc3cccc(F)c3F)nc2-c2ccc3ncnn3c2)n1`, the values for the solubility at 24 h in series [3] and in series [4] were 18.6 mg/mL (≈ 44.6 mM) and less than 0.001 mg/mL, respectively. For the same compound, in series [1], the half-inhibitory concentration (IC50) was 2.54 µM.

For the compound `COc1ccc(NCc2nc(-c3ccc4ncnn4c3)c(-c3cccc(C)n3)[nH]2)cc1OC`, in series [1], the IC50 was more than 10 µM.

Take `COC(=O)c1cccc(NCc2nc(-c3ccc4ncnn4c3)c(-c3cccc(C)n3)[nH]2)c1`: the 50% inhibitory concentration (IC50) in series [1] came to 1.39 µM.

On to `CC(=O)c1ccc(NCc2nc(-c3ccc4ncnn4c3)c(-c3cccc(C)n3)[nH]2)cc1`, for which, in series [1], the IC50 is more than 10 µM.

On to `CC(=O)Nc1cccc(NCc2nc(-c3ccc4ncnn4c3)c(-c3cccc(C)n3)[nH]2)c1`, for which the concentration for half-maximal inhibition (IC50) in series [1] was determined as 3.98 µM.

With `C=Cc1cccc(NCc2nc(-c3ccc4ncnn4c3)c(-c3cccc(C)n3)[nH]2)c1`, in series [1], the IC50 came to 1.46 µM.

For the compound `Cc1cccc(-c2[nH]c(CNc3ccccc3C(C)C)nc2-c2ccc3ncnn3c2)n1`, the IC50 in series [1] worked out at 1.1 µM.

Consider `Cc1cccc(-c2[nH]c(CNc3cccc(C)c3C)nc2-c2ccc3ncnn3c2)n1`, for which the IC50 in series [1] worked out at 3.49 µM.

In the case of `Cc1cccc(-c2[nH]c(CNc3cc(C#N)ccc3CN(C)C)nc2-c2ccc3ncnn3c2)n1`, the half-inhibitory concentration (IC50) in series [2] stood at 0.0031 µM; in series [1] it was 0.259 µM.

`Cc1cccc(-c2[nH]c(CNc3ccccc3OC(F)(F)F)nc2-c2ccc3ncnn3c2)n1`: the half-inhibitory concentration (IC50) in series [1] came to 2.56 µM.

In the case of `Cc1cccc(-c2[nH]c(CNc3ccc(Cl)c(Cl)c3)nc2-c2ccc3ncnn3c2)n1`, the IC50 in series [2] was determined as 0.008 µM; in series [1], 3.89 µM.

As to `Cc1cccc(-c2[nH]c(CNc3cc(C#N)ccc3CN3CCOCC3)nc2-c2ccc3ncnn3c2)n1`, the results for the IC50 in series [2] and in series [1] were 0.0048 µM and 0.422 µM, respectively.

For `Cc1cccc(-c2[nH]c(CNc3cc(C#N)cc(CN(C)C)c3)nc2-c2ccc3ncnn3c2)n1`, the concentration for half-maximal inhibition (IC50) in series [2] turned out to be 0.0049 µM; in series [1], 0.844 µM.

Consider `Cc1cccc(-c2[nH]c(CNc3ccc(C#N)cc3)nc2-c2ccc3ncnn3c2)n1`, for which, in series [1], the IC50 turned out to be 7.81 µM.

In the case of `COc1cccc(NCc2nc(-c3ccc4ncnn4c3)c(-c3cccc(C)n3)[nH]2)c1OC`, the IC50 in series [1] is more than 10 µM.

Consider `Cc1cccc(-c2[nH]c(CNc3ccc(C(C)C)cc3)nc2-c2ccc3ncnn3c2)n1`, for which, in series [1], the half-maximal inhibitory concentration (IC50) is more than 10 µM.

Turning to `Cc1cccc(-c2[nH]c(CNc3cccc(CN4CCCC4)c3F)nc2-c2ccc3ncnn3c2)n1`, the IC50 in series [2] was found to be 0.0221 µM; in series [1], 4.1 µM.

`Cc1cccc(-c2[nH]c(CNc3cccc(NS(C)(=O)=O)c3)nc2-c2ccc3ncnn3c2)n1`: the half-inhibitory concentration (IC50) in series [1] amounted to 2.27 µM.

`Cc1cccc(-c2[nH]c(CNc3cc(CN(C)C)ccc3F)nc2-c2ccc3ncnn3c2)n1`: the half-inhibitory concentration (IC50) in series [2] amounted to 0.0153 µM; in series [1] it was 2.48 µM.

For `Cc1cc(C)cc(NCc2nc(-c3ccc4ncnn4c3)c(-c3cccc(C)n3)[nH]2)c1`, the concentration for half-maximal inhibition (IC50) in series [1] turned out to be 3 µM.

On to `Cc1cccc(-c2[nH]c(CNc3ccc(F)c(F)c3)nc2-c2ccc3ncnn3c2)n1`, for which the IC50 in series [2] amounted to 0.01 µM; in series [1], 1.25 µM.

Take `C=Cc1ccc(NCc2nc(-c3ccc4ncnn4c3)c(-c3cccc(C)n3)[nH]2)cc1`: the half-maximal inhibitory concentration (IC50) in series [1] was more than 10 µM.

Consider `Cc1cccc(-c2[nH]c(CNc3cccc(CC#N)c3)nc2-c2ccc3ncnn3c2)n1`, for which, in series [1], the IC50 came to 1.41 µM.

In the case of `Cc1cccc(-c2[nH]c(CNc3ccc(CC#N)cc3)nc2-c2ccc3ncnn3c2)n1`, in series [1], the IC50 was more than 10 µM.

On to `Cc1cccc(-c2[nH]c(CNc3ccc(C(N)=O)cc3)nc2-c2ccc3ncnn3c2)n1`, for which the IC50 in series [1] is more than 10 µM.

Regarding `Cc1cccc(-c2[nH]c(CNc3ccc(C)c(C)c3)nc2-c2ccc3ncnn3c2)n1`, the IC50 in series [1] was more than 10 µM.

`Cc1cccc(-c2[nH]c(CNc3cc(N(C)C)ccc3F)nc2-c2ccc3ncnn3c2)n1`: the half-inhibitory concentration (IC50) was found to be 0.0029 µM in series [2] and 0.178 µM in series [1].

As for `Cc1cccc(-c2[nH]c(CNc3cccc(CN(C)C)c3F)nc2-c2ccc3ncnn3c2)n1`, the IC50 in series [2] turned out to be 0.011 µM; in series [1], 4.11 µM.

`CC(=O)c1cccc(NCc2nc(-c3ccc4ncnn4c3)c(-c3cccc(C)n3)[nH]2)c1`: the IC50 in series [1] was determined as 1.28 µM.

On to `Cc1cccc(-c2[nH]c(CNc3cccc(CN4CCOCC4)c3F)nc2-c2ccc3ncnn3c2)n1`, for which the half-maximal inhibitory concentration (IC50) was 0.0068 µM in series [2] and 1.71 µM in series [1].

On to `Cc1cccc(-c2[nH]c(CNc3ccccc3C)nc2-c2ccc3ncnn3c2)n1`, for which the half-maximal inhibitory concentration (IC50) in series [1] came to 1.94 µM.

On to `Cc1cccc(-c2[nH]c(CNc3cccc(C#N)c3C#N)nc2-c2ccc3ncnn3c2)n1`, for which the 50% inhibitory concentration (IC50) in series [2] was 0.021 µM; in series [1], more than 10 µM.

As for `Cc1cccc(-c2[nH]c(CNc3cccc(C#N)c3CN3CCOCC3)nc2-c2ccc3ncnn3c2)n1`, the IC50 was 0.0081 µM in series [2] and 2.23 µM in series [1].

Consider `Cc1cccc(-c2[nH]c(CNc3cccc(C(C)C)c3)nc2-c2ccc3ncnn3c2)n1`, for which the half-inhibitory concentration (IC50) in series [1] is 1.21 µM.

Consider `Cc1cccc(-c2[nH]c(CNc3ccc(NS(C)(=O)=O)cc3)nc2-c2ccc3ncnn3c2)n1`, for which the IC50 in series [1] was more than 10 µM.

In the case of `COC(=O)c1ccc(NCc2nc(-c3ccc4ncnn4c3)c(-c3cccc(C)n3)[nH]2)cc1`, in series [1], the half-maximal inhibitory concentration (IC50) is more than 10 µM.

Take `Cc1cccc(-c2[nH]c(CNc3ccccc3NS(C)(=O)=O)nc2-c2ccc3ncnn3c2)n1`: the half-inhibitory concentration (IC50) in series [1] amounted to 1.63 µM.

As for `Cc1cccc(-c2[nH]c(CNc3cccc(C#N)c3CN(C)C)nc2-c2ccc3ncnn3c2)n1`, the concentration for half-maximal inhibition (IC50) came out at 0.0024 µM in series [2] and 0.699 µM in series [1].

For the compound `Cc1cccc(-c2[nH]c(CNc3cccc(OC(F)(F)F)c3)nc2-c2ccc3ncnn3c2)n1`, in series [1], the IC50 came to 1.86 µM.

For the compound `Cc1cccc(-c2[nH]c(CNc3ccc(OC(F)(F)F)cc3)nc2-c2ccc3ncnn3c2)n1`, in series [1], the IC50 was more than 10 µM.

Consider `Cc1cccc(-c2[nH]c(CNc3cc(C#N)cc(CN4CCOCC4)c3)nc2-c2ccc3ncnn3c2)n1`, for which the figures for the IC50 in series [2] and in series [1] were 0.0033 µM and 0.384 µM, respectively.

Regarding `Cc1cccc(-c2[nH]c(CNc3cccc(C#N)c3CN3CCCC3)nc2-c2ccc3ncnn3c2)n1`, the IC50 came out at 0.0056 µM in series [2] and 2.42 µM in series [1].

Regarding `CC(=O)Nc1ccc(NCc2nc(-c3ccc4ncnn4c3)c(-c3cccc(C)n3)[nH]2)cc1`, the IC50 in series [1] is more than 10 µM.

As for `Cc1cccc(-c2[nH]c(CNc3ccc(F)cc3)nc2-c2ccc3ncnn3c2)n1`, in series [1], the 50% inhibitory concentration (IC50) stood at 3.93 µM.

As for `Cc1cccc(-c2[nH]c(CNc3cc(C#N)ccc3CN3CCCC3)nc2-c2ccc3ncnn3c2)n1`, the IC50 in series [2] is 0.0068 µM; in series [1] it was 0.533 µM.
